In brackets after ≈: the same amount, converted by molar mass. Read-outs that look alike come from different tables or passages of the source.
Assays:
physchem = conditions: 23 °C, thermodynamic from solid; for solubility thermodynamic at 24 h: FaSSIF; for solubility thermodynamic: fassif
in vitro = conditions: human; for CC50 at 5 days: uninfected MT-4 cells
HIV-1 (IIIB) = experiment: microbe, parasite or virus in culture; type: cell-based
[1] = Human immunodeficiency virus 1, MT4, 120 h, HIV-1 (IIIB) replication in MT-4 cells, 5 days incubation, Cell Titer Glo, read-out: MT4 EC50
[2] = Human immunodeficiency virus 1, IIIB, MT4, 120 h, read-out: MT4 EC50 (nM)

| SMILES | solubility thermodynamic at 24 h (physchem) | CC50 at 5 days (in vitro) | EC50 (HIV-1 (IIIB); [1]) | solubility thermodynamic (physchem) | CC50 (in vitro) | EC50 (HIV-1 (IIIB); [2]) |
| --- | --- | --- | --- | --- | --- | --- |
| CC1=NO[C@@]2(CC[C@H](C)N3C[C@H]2n2cc(C(=O)NCc4ccc(F)cc4F)c(=O)c(OCOC(=O)N(C)c4ncccc4CN(CC(=O)O)C(=O)OCOP(=O)(O)O)c2C3=O)C1 [Compound 7, N-((2-((((((3′S,5S,7′R)-10′-((2,4-difluorobenzyl)carbamoyl)-3,3′-dimethyl-1′,11′-dioxo-1′,4′,5′,11′-tetrahydro-3′H,4H,7′H-spiro[isoxazole-5,6′-[2,7]methanopyrido[1,2-a][1,4]diazonin]-12′-yl)oxy)methoxy)carbonyl)(methyl)amino)-pyridin-3-yl)methyl)-N-(((phosphonooxy)methoxy)carbonyl)glycine] | 4660 µg/mL (≈ 5.22 mM) | 10.8 µM | 1.48 nM | – | – | – |
| COC1=NO[C@@]2(CC[C@H](C)N3C[C@H]2n2cc(C(=O)NCc4ccc(F)cc4F)c(=O)c(OCOC(=O)OCC4(COP(=O)(O)O)CCC4)c2C3=O)C1 [Compound 48, (((3′S,5S,7′R)-10′-((2,4-difluorobenzyl)carbamoyl)-3-methoxy-3′-methyl-1′,11′-dioxo-1′,4′,5′,11′-tetrahydro-3′H,4H,7′H-spiro[isoxazole-5,6′-[2,7]methanopyrido[1,2-a][1,4]diazonin]-12′-yl)oxy)methyl ((1-((phosphonooxy)methyl)cyclobutyl)methyl) carbonate] | 4920 µg/mL (≈ 6.51 mM) | 15.7 µM | 3.82 nM | – | – | – |
| CC1=NO[C@@]2(CC[C@H](C)N3C[C@H]2n2cc(C(=O)NCc4ccc(F)cc4F)c(=O)c(OCOC(=O)OCCC(C)(C)c4c(CC(=O)N[C@@H](CC(=O)O)C(=O)O)cc(C)cc4OP(=O)(O)O)c2C3=O)C1 [Compound 24, (2-(2-(4-((((((3′S,5S,7′R)-10′-((2,4-difluorobenzyl)carbamoyl)-3,3′-dimethyl-1′,11′-dioxo-1′,4′,5′,11′-tetrahydro-3′H,4H,7′H-spiro[isoxazole-5,6′-[2,7]methanopyrido[1,2-a][1,4]diazonin]-12′-yl)oxy)methoxy)carbonyl)oxy)-2-methylbutan-2-yl)-5-methyl-3-(phosphonooxy)phenyl)acetyl)-L-aspartic acid] | – | – | – | 4900 µg/mL (≈ 4.95 mM) | 12.3 µM | 1.98 nM |
| CC1=NO[C@@]2(CC[C@H](C)N3C[C@H]2n2cc(C(=O)NCc4ccc(F)cc4F)c(=O)c(OCOC(=O)N(C)Cc4ccc(OP(=O)(O)O)cc4)c2C3=O)C1 [Compound 39, (((3′S,5S,7′R)-10′-((2,4-difluorobenzyl)carbamoyl)-3,3′-dimethyl-1′,11′-dioxo-1′,4′,5′,11′-tetrahydro-3′H,4H,7′H-spiro[isoxazole-5,6′-[2,7]methanopyrido[1,2-a][1,4]diazonin]-12′-yl)oxy)methyl methyl(4-(phosphonooxy)benzyl)carbamate] | – | – | – | 4830 µg/mL (≈ 6.36 mM) | ≥ 50 µM | 88.7 nM |
| CC1=NO[C@@]2(CC[C@H](C)N3C[C@H]2n2cc(C(=O)NCc4ccc(F)cc4F)c(=O)c(OCOC(=O)N4CCC[C@H]4COP(=O)(O)O)c2C3=O)C1 [Compound 66, (((3′S,5S,7′R)-10′-((2,4-difluorobenzyl)carbamoyl)-3,3′-dimethyl-1′,11′-dioxo-1′,4′,5′,11′-tetrahydro-3′H,4H,7′H-spiro[isoxazole-5,6′-[2,7]methanopyrido[1,2-a][1,4]diazonin]-12′-yl)oxy)methyl (2S)-2-((phosphonooxy)methyl)pyrrolidine-1-carboxylate] | 4820 µg/mL (≈ 6.67 mM) | ≥ 50 µM | 63.8 nM | – | – | – |
| CC1=NO[C@@]2(CC[C@H](C)N3C[C@H]2n2cc(C(=O)NCc4ccc(F)cc4F)c(=O)c(OC(=O)N(C)c4ncccc4CN(CC(=O)OC(C)(C)C)C(=O)OCOP(=O)(O)O)c2C3=O)C1 [Compound 5, tert-butyl N-((2-(((((3′S,5S,7′R)-10′-((2,4-difluorobenzyl)carbamoyl)-3,3′-dimethyl-1′,11′-dioxo-1′,4′,5′,11′-tetrahydro-3′H,4H,7′H-spiro[isoxazole-5,6′-[2,7]methanopyrido[1,2-a][1,4]diazonin]-12′-yl)oxy)carbonyl)(methyl)amino)pyridin-3-yl)methyl)-N-(((phosphonooxy)methoxy)carbonyl)glycinate] | – | – | – | 4010 µg/mL (≈ 4.37 mM) | 10.3 µM | 1.24 nM |
| CC1=NO[C@@]2(CC[C@H](C)N3C[C@H]2n2cc(C(=O)NCc4ccc(F)cc4F)c(=O)c(OC(=O)CC(C)(C)c4c(C)cc(C)cc4OP(=O)(O)O)c2C3=O)C1 [Compound 26, (3′S,5S,7′R)-10′-((2,4-difluorobenzyl)carbamoyl)-3,3′-dimethyl-1′,11′-dioxo-1′,4′,5′,11′-tetrahydro-3′H,4H,7′H-spiro[isoxazole-5,6′-[2,7]methanopyrido[1,2-a][1,4]diazonin]-12′-yl 3-(2,4-dimethyl-6-(phosphonooxy)phenyl)-3-methylbutanoate] | – | – | – | 4300 µg/mL (≈ 5.57 mM) | 12.2 µM | 1.13 nM |
| CC1=NO[C@@]2(CC[C@H](C)N3C[C@H]2n2cc(C(=O)NCc4ccc(F)cc4F)c(=O)c(OCOC(=O)N(C)Cc4ccccc4OP(=O)(O)O)c2C3=O)C1 [Compound 37, (((3′S,5S,7′R)-10′-((2,4-difluorobenzyl)carbamoyl)-3,3′-dimethyl-1′,11′-dioxo-1′,4′,5′,11′-tetrahydro-3′H,4H,7′H-spiro[isoxazole-5,6′-[2,7]methanopyrido[1,2-a][1,4]diazonin]-12′-yl)oxy)methyl methyl(2-(phosphonooxy)benzyl)carbamate] | – | – | – | 4500 µg/mL (≈ 5.92 mM) | 33.5 µM | 13.3 nM |
| CC1=NO[C@@]2(CC[C@H](C)N3C[C@H]2n2cc(C(=O)NCc4ccc(F)cc4F)c(=O)c(OCc4ccc(OP(=O)(O)O)cc4)c2C3=O)C1 [Compound 41, 4-((((3′S,5S,7′R)-10′-((2,4-difluorobenzyl)carbamoyl)-3,3′-dimethyl-1′,11′-dioxo-1′,4′,5′,11′-tetrahydro-3′H,4H,7′H-spiro[isoxazole-5,6′-[2,7]methanopyrido[1,2-a][1,4]diazonin]-12′-yl)oxy)methyl)phenyl dihydrogen phosphate] | – | – | – | 5080 µg/mL | 12 µM | 0.727 nM |
| CC1=NO[C@@]2(CC[C@H](C)N3C[C@H]2n2cc(C(=O)NCc4ccc(F)cc4F)c(=O)c(OCOC(=O)N4CCOC[C@@H]4COP(=O)(O)O)c2C3=O)C1 [Compound 63, (((3′S,5S,7′R)-10′-((2,4-difluorobenzyl)carbamoyl)-3,3′-dimethyl-1′,11′-dioxo-1′,4′,5′,11′-tetrahydro-3′H,4H,7′H-spiro[isoxazole-5,6′-[2,7]methanopyrido[1,2-a][1,4]diazonin]-12′-yl)oxy)methyl (3R)-3-((phosphonooxy)methyl)morpholine-4-carboxylate] | – | – | – | 5000 µg/mL (≈ 6.76 mM) | ≥ 50 µM | 18.7 nM |
| CC1=NO[C@@]2(CC[C@H](C)N3C[C@H]2n2cc(C(=O)NCc4ccc(F)cc4F)c(=O)c(OC(=O)N(C)c4ncc(C(=O)O)cc4CN(CC(=O)O)C(=O)OCOP(=O)(O)O)c2C3=O)C1 [Compound 8, 5-(((carboxymethyl)(((phosphonooxy)methoxy)carbonyl)amino)methyl)-6-(((((3′S,5S,7′R)-10′-((2,4-difluorobenzyl)carbamoyl)-3,3′-dimethyl-1′,11′-dioxo-1′,4′,5′,11′-tetrahydro-3′H,4H,7′H-spiro[isoxazole-5,6′-[2,7]methanopyrido[1,2-a][1,4]diazonin]-12′-yl)oxy)carbonyl)(methyl)amino)nicotinic acid] | – | – | – | 4800 µg/mL (≈ 5.3 mM) | 10.4 µM | 0.982 nM |
| COC1=NO[C@@]2(CC[C@H](C)N3C[C@H]2n2cc(C(=O)NCc4ccc(F)cc4F)c(=O)c(OCOC(=O)N(C)C[C@@H]4CCCN4)c2C3=O)C1 [Compound 15, (((3′S,5S,7′R)-10′-((2,4-difluorobenzyl)carbamoyl)-3-methoxy-3′-methyl-1′,11′-dioxo-1′,4′,5′,11′-tetrahydro-3′H,4H,7′H-spiro[isoxazole-5,6′-[2,7]methanopyrido[1,2-a][1,4]diazonin]-12′-yl)oxy)methyl methyl(((S)-pyrrolidin-2-yl)methyl)carbamate] | 1480 µg/mL (≈ 2.19 mM) | 14.7 µM | 1.61 nM | – | – | – |
| CC1=NO[C@@]2(CC[C@H](C)N3C[C@H]2n2cc(C(=O)NCc4ccc(F)cc4F)c(=O)c(OCOC(=O)OCC4(COP(=O)(O)O)CCC4)c2C3=O)C1 [Compound 47, (((3′S,5S,7′R)-10′-((2,4-difluorobenzyl)carbamoyl)-3,3′-dimethyl-1′,11′-dioxo-1′,4′,5′,11′-tetrahydro-3′H,4H,7′H-spiro[isoxazole-5,6′-[2,7]methanopyrido[1,2-a][1,4]diazonin]-12′-yl)oxy)methyl ((1-((phosphonooxy)methyl)cyclobutyl)methyl) carbonate] | 4860 µg/mL (≈ 6.57 mM) | 11.2 µM | 2.22 nM | – | – | – |
| CC1=NO[C@@]2(CC[C@H](C)N3C[C@H]2n2cc(C(=O)NCc4ccc(F)cc4F)c(=O)c(OCOC(=O)CC(C)(C)c4c(CC(=O)O)cc(C)cc4OP(=O)(O)O)c2C3=O)C1 [Compound 20, 2-(2-(4-((((3′S,5S,7′R)-10′-((2,4-difluorobenzyl)carbamoyl)-3,3′-dimethyl-1′,11′-dioxo-1′,4′,5′,11′-tetrahydro-3′H,4H,7′H-spiro[isoxazole-5,6′-[2,7]methanopyrido[1,2-a][1,4]diazonin]-12′-yl)oxy)methoxy)-2-methyl-4-oxobutan-2-yl)-5-methyl-3-(phosphonooxy)phenyl)acetic acid] | – | – | – | 4410 µg/mL (≈ 5.22 mM) | 12.5 µM | 1.76 nM |

From patent US20250127801A1, “BRIDGED TRICYCLIC CARBAMOYLPYRIDONE COMPOUNDS AND USES THEREOF” (priority 2023, published 2025)
